Molecular target: T1, rubredoxin (RD), in polyprotein (RD-GB1)n (Pyrococcus furiosus, UniProt P24297)
T1 construct: gene rub; full-length ferric (FeS4) rubredoxin fused to GB1 fingerprint domain, His-tag purified from E. coli DH5alpha, linked by BM(PEO)3 thiol-maleimide coupling into (RD-GB1)n
T1 sequence (P24297 2-54): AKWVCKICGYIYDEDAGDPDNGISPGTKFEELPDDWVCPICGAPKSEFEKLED
Experiment: single-molecule AFM force clamp, FeS4 rupture rate against [KSCN]
Format: binding
Conditions: pH 7.4, 100 mM Tris and NaCl, KSCN 5-800 mM; ferric-thiolate bond rupture rate extrapolated to zero force (Bell-Evans); FeS4 centre exposed by force-induced partial unfolding; not an affinity

N#CS [SCN^−]
k (second-order rate constant of ligand substitution): 0.36 M⁻¹ s⁻¹

Source: PMC4491811, “Force-induced chemical reactions on the metal centre in a single metalloprotein molecule” (Nature Communications, 2015)
